Here are results for 85 molecules from a melting point compilation (Tetko et al.; mined from patent text by program, amines drawn as free bases though some values may be those of a salt).

Starred links: 1 amine or outer side, 2 acyl side, 3 side chain; linkers in the order of their positions; H or OH if unused. Non-standard residues stand in square brackets, D forms with d. Residues, ends and D or L forms follow the SMILES beside them. *: point of attachment. Hyp = O=C(O)[C@@H]1C[C@@H](O)CN1; βNA = c1ccc2cc(N*)ccc2c1; 2Abz = Nc1ccccc1C(=O)O; Boc = CC(C)(C)OC(=O)*; CO = O=C([*:1])[*:2]; Bn = c1ccc(C*)cc1 A value given as a limit tells only on which side of the number the result lay.

In the case of `CC(C)CC(NC(=O)C(Cc1ccc(OCc2ccccc2)cc1)NC(=O)OC(C)(C)C)C(=O)O` (stereo not given) (Boc-Tyr(Bn)-Leu-OH; configuration not given here), the melting point was 90 to 94 °C.
`CCn1c(=O)c2[nH]c(-c3ccc(S(=O)(=O)O)cc3)nc2n(CC)c1=O` gave a melting point above 360 °C.
In the case of `O=c1c2cc(F)c(F)cc2n(-c2ccc(F)cc2)c(=O)n1OCc1ccccc1` it was 201 to 202 °C; in that of `NC1=Nc2ccccc2Cn2cccc21`, 179 to 181 °C; in that of `CC(C)(C)C(=O)c1ccc(COc2ccccc2)cc1`, 79.5 to 80 °C.
Next, `CC(C)C1(C)NC(c2nc3ccc(Cl)cc3cc2C(=O)O)=NC1=O` (stereo not given): 234 to 237 °C; `CN(C)C(=O)c1cc2c(nc(C3CC3)n2C)c2c1CCC(c1ccccc1)O2` (stereo not given): 176 to 179 °C.
In the case of `COc1ccccc1OCC(O)CN1CCC(N2CCN(c3ccc(Cl)cc3)C2=O)CC1` (stereo not given), the melting point lay in the range of 136 to 137 °C.
As to `CC12CCC3c4ccc(C(=O)O)cc4CCC3C1CCC2C(=O)c1ccc(S(C)(=O)=O)cc1` (stereo not given), the melting point lay in the range of 283 to 286 °C.
Next, `COC(=O)CSc1ccc(N2CC(CNC(C)=O)OC2=O)cc1F` (stereo not given): 119 to 120 °C.
With `CNC(=O)Oc1ccc(S(C)(=O)=O)c2c1CCCC2`, the melting point lay within 162 to 164 °C.
The molecule `CCOC(=O)c1c(O)c2ccc(Br)cc2c(=O)n1CC1CC1` showed a melting point of 105 to 106 °C.
In the case of `CC1CN(C2=NC(=O)C(=Cc3cccc(-c4cc(F)c(O)c(C56CC7CC(CC(C7)C5)C6)c4)c3)S2)CC(C)O1` (stereo not given) it was 262 to 264 °C; in that of `COc1ccc(NC(=O)c2ccc(F)c(F)c2)cc1NCc1cccc(O)c1`, 174 to 176 °C; in that of `CC1(C)Oc2ccc(Br)cc2C(n2ccccc2=O)=C1CBr`, 175 °C.
As to `NC(=O)C(CCCCCCCCNC(=O)c1ccccc1O)CC(=O)O` (stereo not given), the melting point lay in the range of 123 to 125 °C.
Next, `O=C(c1c(-c2cc(Cl)cc(Cl)c2)[nH]c2c(Cl)cc(Cl)cc12)C(F)(F)F`: 214 to 216 °C; `CC(O)c1ccc(Cl)c(S(N)(=O)=O)c1` (stereo not given): 144 to 146 °C; `CCc1c(-c2ccc(OCc3ccccc3)cc2)cn2cccc(OCc3ccccc3)c12`: 104 to 105 °C.
Next, `Cc1cc(OCc2sc(-c3ccc(C(F)(F)F)cc3)nc2C)ccc1CCC(=O)O`: 141 to 143 °C; `CCCNC(=O)C1(CCCCSc2nc3ccc(OCC)cc3s2)c2ccccc2-c2ccccc21`: 112 to 114 °C.
In the case of `Cc1ncnc(O)c1C` it was 120 to 121 °C.
Molecule `CCOC(=O)c1cc(SCc2ccccc2)c(Sc2ccccc2)c(S(N)(=O)=O)c1` came in with a melting point of 151 to 152 °C.
Next, `O=c1[nH]c2cscc2c(=O)n1CCN1CCN(c2ccc(F)cc2)CC1`: above 250 °C.
In the case of `CCCOC(=O)N(C)S(=O)(=O)c1cc([N+](=O)[O-])c(N(CCC)CCC)c([N+](=O)[O-])c1`, the melting point lay in the range of 110 to 113 °C.
Next, `COc1cc2c(cc1C(F)(F)F)N(C(=O)Nc1ccc(Sc3cccnc3)nc1)CC2`: 208 to 210 °C; `O=S(c1ccc(C=Cc2nc(CCl)co2)cc1)C(F)(F)F` (stereo not given): 102 to 104 °C; `COc1ccc(C=C(C#N)C#N)c2c1OC(C)(C)C2`: 198 to 200 °C.
In the case of `CCN(CC)C(=O)c1ccc(C(=C2CCN(Cc3ccccc3)CC2)c2ccc(Cl)cc2)cc1` it was 100 to 110 °C; in that of `CCN(CC)CCNC(=O)c1cc(Cl)c(N)cc1OC1OCCO1`, 93 to 95 °C; in that of `CCCc1ccc(OC)c2c(C)c(C(=O)OCC)oc12`, 43 to 46 °C.
Regarding `O=C(O)CN1C(=O)C2C3C=CC(CC3)C2C1=O` (stereo not given), the melting point was 142 °C.
In the case of `CON1CCC2(CC1)NC(=O)C(c1cc(Br)c(F)cc1C)=C2O`, the melting point lay in the range of 229 to 230 °C.
Next, `Cc1nc(N2CCCC(Cc3ccc(C(F)(F)F)cc3)C2=O)sc1C(=O)NCc1cccc(F)c1` (stereo not given): 177 to 178 °C; `Cc1oc(-c2ccc(C(F)(F)F)cc2)cc1CC(=O)O`: 123 to 125 °C.
Next, `O=C(O)c1ccccc1NC(=O)[C@@H]1CCCN1C(=O)[C@@H]1C[C@@H](OCc2ccccc2)CN1C(=O)Nc1ccc2ccccc2c1` ({βNA-CO}-[Hyp](Bn)-Pro-[2Abz]-OH): 156 °C; `O=C(c1ccc(N2CCOCC2)cc1)c1ccc([N+](=O)[O-])cc1`: 173 to 175 °C; `CCC(=O)OC(CC)c1nc2c(C(F)(F)F)cccc2c(O)c1C(=O)Nc1ccccn1` (stereo not given): 204 °C.
Next, `N#Cc1c2ccccc2c(-c2ccc(O)cc2)c2c1sc1ccccc12`: 307 to 309 °C; `COc1cc(NCCCCCCN2C(=O)c3ccccc3C2=O)c2ncccc2c1`: 123 to 124 °C; `CC(c1oc2ccccc2c(=O)c1-c1cccc(F)c1)n1nc(-c2ccc(N3CCOCC3)nc2)c2c(N)ncnc21` (stereo not given): 269 to 271 °C.
On to `Cc1nc2cnccc2n1-c1ccc(C2=Nc3cc(Cl)c(Cl)cc3N3CCN=C3C2)cc1`, for which the melting point is 159 to 162 °C.
Next, `CCCCSc1nc(=O)[nH]cc1F`: 113 °C; `COc1cc(OC)c2c(=O)c3oc4ccccc4c3oc2c1`: 261 to 263 °C; `CC(=O)CC(=O)N=C1SCCN1C`: 43 to 45 °C.
For `COc1cc(C(=O)NS(=O)(=O)c2ccccc2C)ccc1Cc1cn(C(C)C)c2ccc(CCCC(=O)N(C)C)cc12`, the melting point came out at 60 °C.
In the case of `COC(=O)c1cc(N=C=S)c(C)cc1OC` it was 86 to 87.5 °C; in that of `COc1ccc2c(c1)cc(Cc1cc3cccc(OC)c3n1S(=O)(=O)c1ccccc1)n2S(=O)(=O)c1ccccc1`, 168 to 170 °C; in that of `O=C(/C=C\c1ccccc1)Nc1ccccc1`, 101 to 102 °C.
In turn, `COc1ccc(CN2C(=O)[C@H]3CCC[C@H]3N(C(=O)CN3C(=O)c4ccccc4C3=O)c3ccccc32)cc1` (relative stereo) showed a melting point of 237 to 238 °C.
`CCOc1c(C#N)cnc2c(NC(=O)c3c(Cl)cccc3Cl)cccc12` yielded a melting point of 200 to 201 °C.
In the case of `Cc1cc(Cl)c(-n2nc(C)n(C(F)F)c2=O)cc1O` it was 154 to 156 °C; in that of `COc1ccc(C(=O)Nc2c(Cl)cncc2Cl)cc1SC1CCCC1`, 198 °C.
The molecule `CN(C)C(=O)C(N)=NNc1ccc(Cl)cc1C(=O)c1ccccc1Cl` gave a melting point of 150 to 151 °C.
In the case of `CN1CCC(OC(=O)C(C)(c2ccc(O)cc2)C2CCCC2)CC1` (stereo not given) it was 128 to 130 °C.
For `COc1ccc(S(=O)(=O)CC(C)(C)CS(=O)(=O)c2ccc(OC)cc2)cc1`, the melting point lay within 115 to 117 °C.
In the case of `Cc1c(Cc2cccc(C(F)(F)F)c2)sc2c(-c3cccc(C(=O)NCCC#N)c3)cccc12`, the melting point lay in the range of 135 to 136 °C.
Next, `COc1cc(C(=O)N2CCN(C(=O)OC(C)(C)C)C(CO)C2)cc(OC)c1OC` (stereo not given): 119 to 120 °C; `NS(=O)(=O)c1ccc(-c2c(-c3ccccc3)noc2Cl)cc1`: 186 to 187 °C; `CN(C)CCNC1=CC(=O)c2oc(-c3cc(F)ccc3F)nc2C1=O`: 181 to 182 °C.
As to `CCOC(=O)c1cn(-c2cccc(OC3CCCC3)c2)cn1`, the melting point was 66 to 67 °C.
Next, `CCOC(=O)Cc1ccc(NC(=O)c2cc(Cl)ccc2OC)cc1`: 104 °C; `Oc1ccc(-c2cc3cc(O)ccc3o2)c(-c2ccc(OCc3ccccc3)cc2)c1`: 186 to 187 °C.
Next, `CC(=O)/C=C/c1ncn2c1CN(C)C(=O)c1c(Cl)cccc1-2`: 235 to 237 °C; `O=C(O)c1ccc(-c2cnc3c(c2)N(Cc2cc(F)ccc2F)C(=O)CN3)cc1`: above 300 °C.
Next, `NNc1nccc(-c2ccc3c(ccn3-c3ccccn3)c2)c1Cl`: 173 °C; `CNc1ccc(OC)c([N+](=O)[O-])c1OC`: 57 °C.
On to `CCCCCCCCc1ccc(OCC(=O)Cn2cc(C(=O)O)c3ccccc32)cc1`, for which the melting point lay in the range of 182 to 183 °C.
The molecule `COCn1c(-c2nccs2)cc2cccc(NS(=O)(=O)c3cccs3)c21` gave a melting point of 95 to 97 °C.
Next, `Cc1cccc(COc2cccc(OCc3ccc(C(C)C)cc3)c2)c1C(=O)O`: 132 to 133 °C.
Next, `COC(=O)c1c(-c2ccc3ccccc3c2)ccc2ccccc12`: 139 to 140 °C.
In the case of `CC(C)C[C@H](NC(=O)C1CCCCC1)C(=O)N[C@@H](C(C)C)[C@@H](O)c1c(-c2ccccc2)c1=O` it was 116 to 120 °C; in that of `CC=CCn1c(C)c(C)c2cnnc(OCc3ccc(F)cc3)c21`, 93 to 103 °C.
As to `O=C(O)c1cc(NCc2c(F)c(F)c(C(F)(F)F)c(F)c2F)ccc1Cl`, the melting point was determined as 58 °C.
In the case of `Nc1cc(=O)n(Cc2cccc(F)c2)[nH]1` it was 129 °C.
In the case of `O=C(COC(=O)CCCc1ccc(N(CCCl)CCCl)cc1)NCCCC(O)(P(=O)(O)O)P(=O)(O)O` it was above 260 °C; in that of `CCOC(=O)c1nc2n(c(=O)c1O)CCN2CCO`, 155 to 156 °C.
Next, `O=[N+]([O-])c1cccc(NN=C(c2ccc(Cl)cc2)c2ccc(Cl)cc2)c1`: 170 to 172 °C; `COc1cc2c(cc1SCC(=O)O)oc1ccccc12`: 180 to 182 °C.
`O=c1[nH]c(N2CCOCC2)nc2c1C=CCC2` gave a melting point of 228 to 230 °C.
In the case of `O=C1Cc2cc(C(O)CN3CCC(O)(c4ccccc4)CC3)ccc2N1` (stereo not given) it was 192 to 194 °C.
Next, `CCC(=O)c1c(C#N)nn(-c2c(Cl)cc(C(F)(F)F)cc2Cl)c1N`: 167 to 169 °C; `Cc1cc2c(c3c1NC(=O)CC3)O[C@@H](CN)[C@@H]2CO` (racemic): above 300 °C; `COc1cc(C(O)CCCc2ccccc2)ccc1OCc1ccccc1` (stereo not given): 71 to 73 °C.
Next, `O=C1CC(c2ccc3oc4c(c3c2)CCCC4)CC(=O)N1`: 184 to 193 °C.

The melting point is the temperature, or range, at which the solid turns liquid.
